Laboratory results published in ChEMBL document CHEMBL3885881, “DrugMatrix”.

Species: Rattus norvegicus
Assay: DrugMatrix - Regimen: Daily Repeat
Assay type: toxicity, organism-based, Sprague-Dawley
Set-up: regimen Daily Repeat, gender Male, age 6-8 weeks
Details: in vivo, po, route oral GAVAGE, vehicle 100 % WATER; for ABSOLUTE BASOPHIL / ABSOLUTE EOSINOPHIL / ABSOLUTE LYMPHOCYTE / ABSOLUTE MONOCYTE / ABSOLUTE SEGMENTED NEUTROPHIL / BASOPHIL / EOSINOPHIL / ERYTHROCYTE COUNT / HEMATOCRIT / HEMOGLOBIN / LEUKOCYTE COUNT / LYMPHOCYTE / MEAN CORPUSCULAR HEMOGLOBIN / MEAN CORPUSCULAR HEMOGLOBIN CONCENTRATION / MEAN CORPUSCULAR VOLUME / MONOCYTE / NEUTROPHIL / NUCLEATED RED BLOOD CELLS / PLATELET COUNT: tissue Blood; for ALANINE AMINOTRANSFERASE / ALBUMIN / ALKALINE PHOSPHATASE / ASPARTATE AMINOTRANSFERASE / BLOOD UREA NITROGEN / CARBON DIOXIDE / CHLORIDE / CHOLESTEROL / CREATINE PHOSPHOKINASE / CREATININE / GLUCOSE / LACTATE DEHYDROGENASE / LIPASE / PHOSPHORUS / POTASSIUM / SODIUM / TOTAL BILIRUBIN / TOTAL PROTEIN / URIC ACID: tissue Plasma
[1] = 0 mg/kg, 72 h, dose level Control, time 3 day
[2] = 0 mg/kg, 120 h, dose level Control, time 5 day
[3] = 500 mg/kg, 72 h, dose level Low, time 3 day

NCCCCCC(=O)O [AMINOCAPROIC ACID]
ABSOLUTE BASOPHIL [1]: 0 CELLS/uL | ABSOLUTE EOSINOPHIL [1]: 40 CELLS/uL | ABSOLUTE LYMPHOCYTE [1]: 13599.5 CELLS/uL | ABSOLUTE MONOCYTE [1]: 239.33 CELLS/uL | ABSOLUTE SEGMENTED NEUTROPHIL [1]: 1021.17 CELLS/uL | BASOPHIL [1]: 0% | EOSINOPHIL [1]: 0.33% | ERYTHROCYTE COUNT [1]: 5.71 x10E6/uL | HEMATOCRIT [1]: 36.35% | HEMOGLOBIN [1]: 14.05 G/DL | LEUKOCYTE COUNT [1]: 14.9 x10E3/uL | LYMPHOCYTE [1]: 91% | MEAN CORPUSCULAR HEMOGLOBIN [1]: 24.62 pg | MEAN CORPUSCULAR HEMOGLOBIN CONCENTRATION [1]: 38.65 G/DL | MEAN CORPUSCULAR VOLUME [1]: 63.7 fL | MONOCYTE [1]: 1.5% | NEUTROPHIL [1]: 7.17% | NUCLEATED RED BLOOD CELLS [1]: 0.33 /100WBC | PLATELET COUNT [1]: 1225.5 x10E3/uL | ALANINE AMINOTRANSFERASE [1]: 48.5 u/L | ALBUMIN [1]: 4.18 G/DL | ALKALINE PHOSPHATASE [1]: 390.83 u/L | ASPARTATE AMINOTRANSFERASE [1]: 89 u/L | BLOOD UREA NITROGEN [1]: 14.83 mg/dL | CARBON DIOXIDE [1]: 24.83 mmol/L | CHLORIDE [1]: 100.83 MEQ/L | CHOLESTEROL [1]: 72.5 mg/dL | CREATINE PHOSPHOKINASE [1]: 503 u/L | CREATININE [1]: 0.2 mg/dL | GLUCOSE [1]: 163 mg/dL | LACTATE DEHYDROGENASE [1]: 316.83 u/L | LIPASE [1]: 9.83 u/L | PHOSPHORUS [1]: 11.57 mg/dL | POTASSIUM [1]: 6.16 MEQ/L | SODIUM [1]: 142.62 MEQ/L | TOTAL BILIRUBIN [1]: 0.2 mg/dL | TOTAL PROTEIN [1]: 5.8 G/DL | URIC ACID [1]: 1.65 mg/dL | ABSOLUTE BASOPHIL [2]: 0 CELLS/uL | ABSOLUTE EOSINOPHIL [2]: 21 CELLS/uL | ABSOLUTE LYMPHOCYTE [2]: 14288.5 CELLS/uL | ABSOLUTE MONOCYTE [2]: 205.33 CELLS/uL | ABSOLUTE SEGMENTED NEUTROPHIL [2]: 968.5 CELLS/uL | BASOPHIL [2]: 0% | EOSINOPHIL [2]: 0.17% | ERYTHROCYTE COUNT [2]: 5.83 x10E6/uL | HEMATOCRIT [2]: 36.53% | HEMOGLOBIN [2]: 14.4 G/DL | LEUKOCYTE COUNT [2]: 15.48 x10E3/uL | LYMPHOCYTE [2]: 92% | MEAN CORPUSCULAR HEMOGLOBIN [2]: 24.72 pg | MEAN CORPUSCULAR HEMOGLOBIN CONCENTRATION [2]: 39.43 G/DL | MEAN CORPUSCULAR VOLUME [2]: 62.68 fL | MONOCYTE [2]: 1.33% | NEUTROPHIL [2]: 6.5% | NUCLEATED RED BLOOD CELLS [2]: 0.17 /100WBC | PLATELET COUNT [2]: 1280.5 x10E3/uL | ALANINE AMINOTRANSFERASE [2]: 50 u/L | ALBUMIN [2]: 4.28 G/DL | ALKALINE PHOSPHATASE [2]: 380.17 u/L | ASPARTATE AMINOTRANSFERASE [2]: 82.67 u/L | BLOOD UREA NITROGEN [2]: 15.33 mg/dL | CARBON DIOXIDE [2]: 27.17 mmol/L | CHLORIDE [2]: 100.33 MEQ/L | CHOLESTEROL [2]: 60.67 mg/dL | CREATINE PHOSPHOKINASE [2]: 441.5 u/L | CREATININE [2]: 0.16 mg/dL | GLUCOSE [2]: 146 mg/dL | LACTATE DEHYDROGENASE [2]: 189.33 u/L | LIPASE [2]: 9.17 u/L | PHOSPHORUS [2]: 11.67 mg/dL | POTASSIUM [2]: 6.86 MEQ/L | SODIUM [2]: 142.33 MEQ/L | TOTAL BILIRUBIN [2]: 0.2 mg/dL | TOTAL PROTEIN [2]: 6.12 G/DL | URIC ACID [2]: 1.82 mg/dL | ABSOLUTE BASOPHIL [3]: 0 CELLS/uL | ABSOLUTE EOSINOPHIL [3]: 0 CELLS/uL | ABSOLUTE LYMPHOCYTE [3]: 14688.33 CELLS/uL | ABSOLUTE MONOCYTE [3]: 111.67 CELLS/uL | ABSOLUTE SEGMENTED NEUTROPHIL [3]: 1900 CELLS/uL | BASOPHIL [3]: 0% | EOSINOPHIL [3]: 0% | ERYTHROCYTE COUNT [3]: 6.18 x10E6/uL | HEMATOCRIT [3]: 38.13% | HEMOGLOBIN [3]: 14.43 G/DL | LEUKOCYTE COUNT [3]: 16.7 x10E3/uL | LYMPHOCYTE [3]: 87.67% | MEAN CORPUSCULAR HEMOGLOBIN [3]: 23.37 pg | MEAN CORPUSCULAR HEMOGLOBIN CONCENTRATION [3]: 37.87 G/DL | MEAN CORPUSCULAR VOLUME [3]: 61.8 fL | MONOCYTE [3]: 0.67% | NEUTROPHIL [3]: 11.67% | NUCLEATED RED BLOOD CELLS [3]: 0.33 /100WBC | PLATELET COUNT [3]: 1460 x10E3/uL | ALANINE AMINOTRANSFERASE [3]: 62 u/L | ALBUMIN [3]: 4.23 G/DL | ALKALINE PHOSPHATASE [3]: 425.33 u/L | ASPARTATE AMINOTRANSFERASE [3]: 90.33 u/L | BLOOD UREA NITROGEN [3]: 16.67 mg/dL | CARBON DIOXIDE [3]: 27.67 mmol/L | CHLORIDE [3]: 100.33 MEQ/L | CHOLESTEROL [3]: 70 mg/dL | CREATINE PHOSPHOKINASE [3]: 270.33 u/L | CREATININE [3]: 0.23 mg/dL | GLUCOSE [3]: 150.67 mg/dL | LACTATE DEHYDROGENASE [3]: 189.67 u/L | LIPASE [3]: 9.33 u/L | PHOSPHORUS [3]: 11.87 mg/dL | POTASSIUM [3]: 7.16 MEQ/L | SODIUM [3]: 144.07 MEQ/L | TOTAL BILIRUBIN [3]: 0.27 mg/dL | TOTAL PROTEIN [3]: 5.93 G/DL | URIC ACID [3]: 1.67 mg/dL
